Test results: ChEMBL document CHEMBL1201862, “PubChem BioAssay data set” (2004)
Calls of active or inactive are those of the source.

Experiments:
[1] = target: T1, Mitochondrial peptide methionine sulfoxide reductase (Bos taurus, UniProt P54149); assay type: functional;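 as to IC50: absorbance read-out, biochemical high-throughput dose-response screen for MsrA inhibitors, confirmatory; recombinant bovine MsrA coupled to E. coli TrxB with NADPH and selenocystamine; potency is for inhibitors of MsrA activity on DMSO substrate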
T1 sequence (P54149 whole entry): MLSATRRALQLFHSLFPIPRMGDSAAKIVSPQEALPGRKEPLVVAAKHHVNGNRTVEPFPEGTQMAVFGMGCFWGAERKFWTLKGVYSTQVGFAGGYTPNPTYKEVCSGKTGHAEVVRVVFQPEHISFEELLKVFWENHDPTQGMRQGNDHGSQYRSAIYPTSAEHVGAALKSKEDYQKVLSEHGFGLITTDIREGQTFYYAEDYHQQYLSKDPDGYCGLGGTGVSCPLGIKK

[2] = target: T2, Insulin-degrading enzyme (Homo sapiens, UniProt P14735); experiment: activators of endogenous IDE in HEK cells, dose response, cell-based, fluorescence polarization (AID 588439); assay type: functional
T2 sequence (P14735 whole entry): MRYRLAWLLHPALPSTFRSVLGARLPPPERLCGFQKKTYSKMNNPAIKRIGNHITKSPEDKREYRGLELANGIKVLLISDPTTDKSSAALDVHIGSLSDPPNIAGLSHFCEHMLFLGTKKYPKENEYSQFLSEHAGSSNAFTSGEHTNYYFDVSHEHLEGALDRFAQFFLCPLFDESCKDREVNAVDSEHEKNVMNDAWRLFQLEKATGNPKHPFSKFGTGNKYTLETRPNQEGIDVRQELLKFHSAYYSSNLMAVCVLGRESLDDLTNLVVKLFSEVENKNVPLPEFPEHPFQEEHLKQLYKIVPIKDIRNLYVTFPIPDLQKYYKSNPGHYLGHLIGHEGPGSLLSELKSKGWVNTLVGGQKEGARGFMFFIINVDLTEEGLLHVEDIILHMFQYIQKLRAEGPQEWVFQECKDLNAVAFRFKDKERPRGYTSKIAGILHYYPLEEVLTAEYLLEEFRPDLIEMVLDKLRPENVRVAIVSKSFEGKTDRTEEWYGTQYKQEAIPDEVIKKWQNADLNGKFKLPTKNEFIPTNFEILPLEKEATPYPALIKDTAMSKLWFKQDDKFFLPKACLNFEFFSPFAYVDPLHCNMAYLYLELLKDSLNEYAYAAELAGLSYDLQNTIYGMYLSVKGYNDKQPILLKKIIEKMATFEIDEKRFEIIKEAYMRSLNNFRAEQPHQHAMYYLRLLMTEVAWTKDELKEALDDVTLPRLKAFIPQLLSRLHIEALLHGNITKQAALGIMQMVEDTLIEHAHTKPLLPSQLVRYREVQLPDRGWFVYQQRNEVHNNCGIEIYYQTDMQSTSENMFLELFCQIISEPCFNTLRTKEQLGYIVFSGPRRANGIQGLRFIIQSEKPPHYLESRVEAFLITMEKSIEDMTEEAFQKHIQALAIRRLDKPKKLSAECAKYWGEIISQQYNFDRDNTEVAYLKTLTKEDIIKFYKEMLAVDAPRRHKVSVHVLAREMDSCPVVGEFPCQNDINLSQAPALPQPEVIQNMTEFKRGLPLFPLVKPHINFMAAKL

[3] = system: HEK293; experiment: optical interference in Abeta FP readout, dose response, artefact control for IDE activator project, biochemical, fluorescence polarization (AID 588442); assay type: functional, cell-based; conditions: Homo sapiens
[4] = target: T2, Insulin-degrading enzyme; experiment: activators of recombinant IDE enzyme, dose response, counter-screen for IDE activator project, biochemical, fluorescence polarization (AID 588681)
[5] = system: HEK293; experiment: HEK cell cytotoxicity by LDH release, dose response, cytotoxicity control for IDE activator project, fluorescence, HEK cells (AID 588440); assay type: functional, cell-based; conditions: Homo sapiens;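 also: cytotoxicity by LDH release measuring loss of membrane integrity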
[6] = target: T3, ORF 73 (Human herpesvirus 8, UniProt O40947); experiment: inhibitors of C-LANA binding to LBS DNA, dose response, biochemical, fluorescence polarization, cherry-picked samples (AID 504725); design: species or system Human gammaherpesvirus 8;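 also: fluorescence polarization of a labeled DNA duplex reporting LANA DNA binding; potency is for inhibitors that block LANA binding to the DNA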
T3 sequence (O40947 whole entry): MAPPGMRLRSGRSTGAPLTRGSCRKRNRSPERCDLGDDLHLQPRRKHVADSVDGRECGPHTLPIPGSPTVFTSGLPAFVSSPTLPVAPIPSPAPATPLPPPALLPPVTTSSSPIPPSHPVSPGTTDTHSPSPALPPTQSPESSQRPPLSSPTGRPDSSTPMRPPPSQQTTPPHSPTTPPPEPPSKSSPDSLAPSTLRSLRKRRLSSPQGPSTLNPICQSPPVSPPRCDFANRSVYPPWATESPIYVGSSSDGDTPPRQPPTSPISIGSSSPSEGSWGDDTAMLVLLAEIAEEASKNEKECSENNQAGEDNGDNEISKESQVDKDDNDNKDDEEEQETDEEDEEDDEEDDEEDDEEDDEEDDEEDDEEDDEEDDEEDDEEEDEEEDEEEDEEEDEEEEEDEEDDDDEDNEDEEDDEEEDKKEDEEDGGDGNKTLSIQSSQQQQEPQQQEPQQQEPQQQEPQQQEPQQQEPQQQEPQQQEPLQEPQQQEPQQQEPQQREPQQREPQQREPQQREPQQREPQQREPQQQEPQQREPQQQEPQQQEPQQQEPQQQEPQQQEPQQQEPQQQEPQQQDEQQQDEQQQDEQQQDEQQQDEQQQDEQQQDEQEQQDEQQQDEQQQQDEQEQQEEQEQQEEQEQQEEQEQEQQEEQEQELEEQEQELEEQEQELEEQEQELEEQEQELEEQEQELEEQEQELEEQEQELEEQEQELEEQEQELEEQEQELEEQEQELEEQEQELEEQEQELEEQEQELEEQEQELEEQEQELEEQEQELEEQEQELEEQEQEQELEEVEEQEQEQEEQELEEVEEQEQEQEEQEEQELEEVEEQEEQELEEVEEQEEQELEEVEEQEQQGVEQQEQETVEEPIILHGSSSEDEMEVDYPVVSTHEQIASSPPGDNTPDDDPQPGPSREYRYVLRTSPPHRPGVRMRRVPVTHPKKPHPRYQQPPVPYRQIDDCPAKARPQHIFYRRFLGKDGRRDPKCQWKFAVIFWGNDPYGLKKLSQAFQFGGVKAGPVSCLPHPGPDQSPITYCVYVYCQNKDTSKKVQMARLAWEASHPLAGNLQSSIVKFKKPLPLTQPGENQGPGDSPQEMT

[7] = target: T1, Mitochondrial peptide methionine sulfoxide reductase; experiment: Absorbance-based biochemical high throughput dose response assay for activators of Methionine sulfoxide reductase A (MsrA).; assay type: functional
[8] = system: BJ; experiment: cells; assay type: functional, cell-based; conditions: Homo sapiens
[9] = cytotoxicity toward DRD oncogenic fibroblasts, dose response, cell-based, non-viral oncogenic, luminescence (AID 1934); assay type: functional; conditions: Homo sapiens
[10] = system: BJ; experiment: cytotoxicity toward Ras-transformed BJeLR fibroblasts, dose response, cell-based, alamar blue fluorescence, cherrypicked samples (AID 2631); assay type: functional; conditions: Homo sapiens;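 also: confirmatory dose-response assay in RAS-dependent BJ fibroblasts engineered with TERT, LT and ST, with cytotoxicity read by fluorescence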
[11] = system: BJ; experiment: cytotoxicity toward BJ-TERT-LT-ST fibroblasts, dose response, cell-based, RAS-independent, luminescence (AID 1935); assay type: functional; conditions: Homo sapiens;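 also: BJ fibroblasts immortalized with TERT plus LT and ST oncogenes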
[12] = system: BJ; experiment: cytotoxicity toward BJ-TERT fibroblasts, dose response, cell-based, RAS-independent, luminescence (AID 1933); assay type: functional; conditions: Homo sapiens
[13] = target: DNA (cytosine-5)-methyltransferase 1 (Homo sapiens, UniProt P26358); experiment: DNMT1 methyltransferase inhibitors, confirmation, biochemical, fluorescent molecular beacon (AID 602386); assay type: functional
DNA (cytosine-5)-methyltransferase 1, sequence (P26358 whole entry): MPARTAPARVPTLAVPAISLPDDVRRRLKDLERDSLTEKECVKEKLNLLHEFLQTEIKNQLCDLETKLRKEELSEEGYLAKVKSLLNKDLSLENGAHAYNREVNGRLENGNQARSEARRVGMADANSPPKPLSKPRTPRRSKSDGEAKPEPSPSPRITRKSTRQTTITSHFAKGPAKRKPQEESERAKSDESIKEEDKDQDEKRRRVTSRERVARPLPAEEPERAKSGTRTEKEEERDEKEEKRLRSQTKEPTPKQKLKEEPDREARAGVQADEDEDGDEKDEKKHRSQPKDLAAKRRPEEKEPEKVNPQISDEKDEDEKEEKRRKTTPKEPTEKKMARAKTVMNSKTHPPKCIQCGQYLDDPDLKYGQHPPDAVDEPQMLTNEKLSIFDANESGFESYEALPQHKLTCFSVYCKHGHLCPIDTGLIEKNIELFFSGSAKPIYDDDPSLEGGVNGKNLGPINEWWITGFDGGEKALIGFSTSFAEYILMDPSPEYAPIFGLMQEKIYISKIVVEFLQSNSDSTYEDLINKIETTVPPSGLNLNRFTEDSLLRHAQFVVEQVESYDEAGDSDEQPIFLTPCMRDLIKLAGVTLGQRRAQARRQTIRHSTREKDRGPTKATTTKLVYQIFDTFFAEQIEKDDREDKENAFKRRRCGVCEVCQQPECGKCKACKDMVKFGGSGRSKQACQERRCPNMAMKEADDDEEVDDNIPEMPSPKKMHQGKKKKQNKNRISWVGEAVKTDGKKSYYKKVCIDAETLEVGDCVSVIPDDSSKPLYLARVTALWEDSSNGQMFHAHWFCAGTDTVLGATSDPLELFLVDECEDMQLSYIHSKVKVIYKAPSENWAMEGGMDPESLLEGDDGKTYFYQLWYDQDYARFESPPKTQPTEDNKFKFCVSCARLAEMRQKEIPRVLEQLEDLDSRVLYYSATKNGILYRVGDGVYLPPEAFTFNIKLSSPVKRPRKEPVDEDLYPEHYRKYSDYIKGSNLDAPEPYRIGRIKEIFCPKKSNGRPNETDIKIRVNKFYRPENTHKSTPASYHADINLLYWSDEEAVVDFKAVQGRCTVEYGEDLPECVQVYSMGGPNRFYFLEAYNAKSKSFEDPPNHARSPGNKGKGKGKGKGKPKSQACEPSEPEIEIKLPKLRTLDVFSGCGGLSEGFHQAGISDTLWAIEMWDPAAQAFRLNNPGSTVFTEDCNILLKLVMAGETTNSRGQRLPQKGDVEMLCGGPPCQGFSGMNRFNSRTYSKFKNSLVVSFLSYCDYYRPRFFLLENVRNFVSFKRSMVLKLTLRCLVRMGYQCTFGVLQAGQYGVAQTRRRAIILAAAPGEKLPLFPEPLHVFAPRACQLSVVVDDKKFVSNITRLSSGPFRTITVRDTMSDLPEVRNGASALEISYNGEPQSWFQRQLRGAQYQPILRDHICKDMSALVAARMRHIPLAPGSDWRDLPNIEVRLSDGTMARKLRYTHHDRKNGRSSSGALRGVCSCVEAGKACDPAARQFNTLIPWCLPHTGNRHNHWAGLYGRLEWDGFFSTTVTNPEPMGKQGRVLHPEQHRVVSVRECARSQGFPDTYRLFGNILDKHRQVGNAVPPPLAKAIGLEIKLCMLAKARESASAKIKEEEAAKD

[14] = target: Adenosylmethionine-8-amino-7-oxononanoate aminotransferase (Mycobacterium tuberculosis, UniProt P9WQ81); experiment: Mycobacterium tuberculosis BioA enzyme inhibitor Measured in Biochemical System Using Plate Reader - 2163-02_Inhibitor_Dose_CherryPick_Activity.; assay type: functional, Mycobacterium tuberculosis UT205
Adenosylmethionine-8-amino-7-oxononanoate aminotransferase, sequence (P9WQ81 whole entry): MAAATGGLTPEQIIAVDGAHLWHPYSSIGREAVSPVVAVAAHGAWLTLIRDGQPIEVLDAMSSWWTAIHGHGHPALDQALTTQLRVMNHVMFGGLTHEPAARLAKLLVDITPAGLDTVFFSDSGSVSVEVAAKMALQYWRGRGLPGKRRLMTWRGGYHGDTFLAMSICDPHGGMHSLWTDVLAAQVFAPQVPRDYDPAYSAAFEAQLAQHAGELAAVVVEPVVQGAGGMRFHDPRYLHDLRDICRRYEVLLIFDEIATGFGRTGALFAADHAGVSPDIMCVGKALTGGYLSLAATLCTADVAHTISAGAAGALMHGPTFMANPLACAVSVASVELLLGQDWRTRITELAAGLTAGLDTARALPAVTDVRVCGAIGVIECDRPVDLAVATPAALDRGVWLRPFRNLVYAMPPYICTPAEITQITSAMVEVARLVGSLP

[15] = system: HeLa; experiment: HeLa cell cytotoxicity, dose response, cytotoxicity control for MITF activator project, CellTiter-Glo luminescence, cherry-pick samples (AID 540259); assay type: functional, cell-based; conditions: Homo sapiens
[16] = target: T4, Protein skinhead-1 (Caenorhabditis elegans, UniProt P34707); assay type: functional
T4 sequence (P34707 whole entry): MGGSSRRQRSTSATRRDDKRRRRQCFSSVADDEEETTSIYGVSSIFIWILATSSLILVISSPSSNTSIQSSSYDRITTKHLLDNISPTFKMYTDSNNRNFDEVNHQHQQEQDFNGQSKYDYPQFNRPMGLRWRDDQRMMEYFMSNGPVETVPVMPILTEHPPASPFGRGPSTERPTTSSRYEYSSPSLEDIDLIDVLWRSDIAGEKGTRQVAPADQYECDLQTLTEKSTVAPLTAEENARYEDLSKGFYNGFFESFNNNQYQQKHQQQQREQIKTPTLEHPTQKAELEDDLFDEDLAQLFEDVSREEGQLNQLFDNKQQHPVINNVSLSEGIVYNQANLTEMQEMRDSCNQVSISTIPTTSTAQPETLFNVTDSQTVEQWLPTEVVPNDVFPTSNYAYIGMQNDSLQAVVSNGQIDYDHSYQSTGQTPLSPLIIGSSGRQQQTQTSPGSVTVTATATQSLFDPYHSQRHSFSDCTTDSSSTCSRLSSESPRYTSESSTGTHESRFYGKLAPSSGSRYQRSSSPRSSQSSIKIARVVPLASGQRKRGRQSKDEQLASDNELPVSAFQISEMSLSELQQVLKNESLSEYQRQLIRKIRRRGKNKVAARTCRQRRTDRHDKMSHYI

[17] = target: Peroxisome proliferator-activated receptor gamma/Nuclear receptor coactivator 2 (Homo sapiens, UniProt P37231); assay type: functional;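 also: agonist potency for raising coactivator recruitment to the receptor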
Peroxisome proliferator-activated receptor gamma/Nuclear receptor coactivator 2, sequence (P37231 whole entry): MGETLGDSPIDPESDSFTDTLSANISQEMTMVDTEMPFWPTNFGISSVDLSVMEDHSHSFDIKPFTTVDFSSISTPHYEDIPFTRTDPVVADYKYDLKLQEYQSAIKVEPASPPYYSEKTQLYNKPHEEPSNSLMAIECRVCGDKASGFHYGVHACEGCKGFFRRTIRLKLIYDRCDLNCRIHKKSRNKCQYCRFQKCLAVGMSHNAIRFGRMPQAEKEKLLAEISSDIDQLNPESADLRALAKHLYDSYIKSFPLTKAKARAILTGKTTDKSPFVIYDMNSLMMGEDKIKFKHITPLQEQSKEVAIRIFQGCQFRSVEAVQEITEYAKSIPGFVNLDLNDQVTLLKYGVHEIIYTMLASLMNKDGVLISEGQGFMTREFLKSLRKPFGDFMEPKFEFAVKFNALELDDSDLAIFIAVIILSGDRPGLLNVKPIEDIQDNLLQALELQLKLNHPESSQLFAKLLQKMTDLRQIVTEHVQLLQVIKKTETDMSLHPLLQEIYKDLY
Peroxisome proliferator-activated receptor gamma/Nuclear receptor coactivator 2, sequence (Q15596 whole entry, further chain): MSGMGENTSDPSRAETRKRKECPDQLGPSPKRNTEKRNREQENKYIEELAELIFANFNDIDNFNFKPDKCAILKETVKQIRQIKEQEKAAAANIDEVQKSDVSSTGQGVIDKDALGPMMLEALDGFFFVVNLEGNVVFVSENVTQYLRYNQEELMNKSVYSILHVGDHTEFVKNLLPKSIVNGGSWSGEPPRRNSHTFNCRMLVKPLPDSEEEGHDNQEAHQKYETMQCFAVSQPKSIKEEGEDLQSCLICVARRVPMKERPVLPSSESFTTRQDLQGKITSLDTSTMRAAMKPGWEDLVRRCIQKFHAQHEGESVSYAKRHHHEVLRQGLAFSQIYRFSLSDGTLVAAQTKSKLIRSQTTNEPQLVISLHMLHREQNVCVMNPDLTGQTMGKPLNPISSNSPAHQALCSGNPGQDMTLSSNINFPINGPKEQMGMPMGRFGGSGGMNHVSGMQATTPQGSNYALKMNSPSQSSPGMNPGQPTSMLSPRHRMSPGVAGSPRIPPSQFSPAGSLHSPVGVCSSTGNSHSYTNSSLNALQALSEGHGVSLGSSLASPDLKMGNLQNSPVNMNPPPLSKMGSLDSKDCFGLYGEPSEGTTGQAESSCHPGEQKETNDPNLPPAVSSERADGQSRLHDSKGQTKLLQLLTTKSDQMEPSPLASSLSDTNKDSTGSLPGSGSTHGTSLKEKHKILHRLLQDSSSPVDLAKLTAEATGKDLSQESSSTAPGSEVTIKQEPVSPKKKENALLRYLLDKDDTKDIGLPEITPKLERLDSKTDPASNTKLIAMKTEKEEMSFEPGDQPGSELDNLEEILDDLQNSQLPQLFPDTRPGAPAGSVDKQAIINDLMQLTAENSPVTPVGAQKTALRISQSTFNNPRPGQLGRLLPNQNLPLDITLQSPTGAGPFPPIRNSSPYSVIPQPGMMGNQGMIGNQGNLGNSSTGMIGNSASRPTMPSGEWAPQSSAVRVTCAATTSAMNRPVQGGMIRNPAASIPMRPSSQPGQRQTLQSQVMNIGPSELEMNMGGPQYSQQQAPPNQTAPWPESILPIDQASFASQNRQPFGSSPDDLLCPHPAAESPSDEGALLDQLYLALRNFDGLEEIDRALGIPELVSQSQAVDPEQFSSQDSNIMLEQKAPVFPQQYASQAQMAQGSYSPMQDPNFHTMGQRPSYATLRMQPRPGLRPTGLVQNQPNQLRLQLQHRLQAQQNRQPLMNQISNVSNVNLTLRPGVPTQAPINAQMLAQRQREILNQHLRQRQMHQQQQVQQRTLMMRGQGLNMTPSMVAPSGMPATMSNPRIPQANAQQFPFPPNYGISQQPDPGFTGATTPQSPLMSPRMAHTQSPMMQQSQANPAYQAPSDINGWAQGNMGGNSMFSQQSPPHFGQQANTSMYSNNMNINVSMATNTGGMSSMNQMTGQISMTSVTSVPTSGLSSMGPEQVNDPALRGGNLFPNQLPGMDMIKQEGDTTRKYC

[18] = target: Peroxisome proliferator-activated receptor gamma/Nuclear receptor coactivator 3 (Homo sapiens, UniProt P37231); assay type: functional;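 also: agonist potency for raising coactivator recruitment to the receptor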
[19] = target: Peroxisome proliferator-activated receptor gamma/Nuclear receptor coactivator 1 (Homo sapiens, UniProt P37231); assay type: functional;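 also: agonist potency as compounds enhance coactivator SRC-1 recruitment to PPARgamma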
[20] = LGR2 antagonists, dose response, cell-based, HEK293, CRE-luciferase reporter, cherry pick, set 2 (AID 743343); assay type: functional;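 also: transfected cells were stimulated with diluted bursicon conditioned medium after compound addition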
[21] = HepG2 cell cytotoxicity, dose response, cytotoxicity control, plate reader, cherry-pick, antagonist series (AID 743416); assay type: functional, cell-based
[22] = MC4R antagonists, dose response, counter-screen for LGR2 antagonist project, cell-based, plate reader, cherry pick (AID 743444); assay type: functional;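 also: transfected HEK 293 cells stimulated with alpha-MSH peptide; potency of inhibitors of the alpha-MSH evoked signal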
[23] = target: T5, Interleukin-8 (Homo sapiens, UniProt P10145); experiment: Dose Response confirmation of uHTS small molecule hits for cystic fibrosis induced NFkb Inhibitors in a TNFa-induced IL8 counterscreen.; assay type: functional; conditions: read-out: IC50_Mean
T5 sequence (P10145 whole entry): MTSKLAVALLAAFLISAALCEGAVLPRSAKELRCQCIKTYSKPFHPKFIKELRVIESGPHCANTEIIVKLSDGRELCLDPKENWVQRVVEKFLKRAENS

[24] = target: T5, Interleukin-8; experiment: Dose Response confirmation of uHTS small molecule hits for cystic fibrosis induced NFkb Inhibitors in a PAF-induced IL8 counterscreen.; assay type: functional; conditions: read-out: IC50_Mean
[25] = target: T6, Low molecular weight phosphotyrosine protein phosphatase (Homo sapiens, UniProt P24666); assay type: functional; conditions: read-out: IC50_Mean;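 also: Dose-response confirmation assay measuring inhibition of LMPTP enzyme activity by fluorescence intensity read-out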
T6 sequence (P24666 whole entry): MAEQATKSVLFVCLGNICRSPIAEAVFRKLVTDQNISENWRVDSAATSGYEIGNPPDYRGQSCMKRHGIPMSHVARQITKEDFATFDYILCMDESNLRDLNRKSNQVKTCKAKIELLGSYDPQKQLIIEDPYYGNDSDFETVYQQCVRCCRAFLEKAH

SMILES: COc1ccc(CNC(=O)c2ccc(=O)oc2)cc1OC
- IC50 [1]: 151 µM (inactive)

SMILES: CC(=O)OCCn1c2nc(=O)[nH]c(=O)c-2nc2cc(C)c(C)cc21
- EC50 [2]: > 54.7 µM (inactive)
- EC50 [3]: > 54.7 µM (inactive)
- EC50 [4]: > 54.7 µM (inactive)
- IC50 [5]: > 89.2 µM (inactive)
- AC50 [6]: 0.246 µM (active)
- EC50 [7]: 54.4 µM (inactive)

SMILES: COc1ccc(N/C=C/C(=O)c2cc(OC)c(OC)c(OC)c2)cc1
- EC50 [8]: 20.5 µM (inconclusive)
- EC50 [9]: 0.603 µM (active)
- EC50 [10]: 0.133 µM (active)
- EC50 [11]: 0.441 µM (inconclusive)
- EC50 [12]: 0.666 µM (active)

SMILES: COc1ccccc1N1CCN(/N=C/c2ccc(Cl)c([N+](=O)[O-])c2)CC1
- IC50 [13]: > 99 µM (inactive)

SMILES: Cc1cc2c(c(=O)n1Cc1cccnc1)C(c1cccs1)C(C#N)=C(N)O2 (stereo unspecified)
- AC50 [14]: 2.08 µM (active)

SMILES: Cc1ccc(/C=N/NC(=O)c2cc(-c3ccncc3)nc3ccccc23)o1
- EC50 [8]: 37.5 µM (inconclusive)
- EC50 [9]: 2.27 µM (active)
- EC50 [10]: 1.41 µM (active)
- EC50 [11]: 25.4 µM (active)
- EC50 [12]: 2.77 µM (active)

SMILES: Cn1c2ccccc2c2c(=O)oc3ccccc3c21
- IC50 [13]: > 99 µM (inactive)

SMILES: Clc1ccccc1/C=C/c1nc(-c2cccnc2)no1
- AC50 [15]: 54.3 µM (active)
- IC50 [16]: > 100 µM (inactive)

SMILES: O=C(NC1CCCC1)c1cnn2c(C(F)(F)F)cc(-c3ccc4c(c3)OCO4)nc12
- EC50 [2]: > 54.7 µM (inactive)
- EC50 [3]: > 55.9 µM (inactive)
- EC50 [4]: > 54.7 µM (inactive)
- IC50 [5]: > 89.2 µM (inactive)

SMILES: COc1ccc2c(-c3ccccc3)cc(SCC(=O)NC(N)=O)nc2c1
- EC50 [2]: > 54.7 µM (inactive)
- EC50 [3]: > 55.9 µM (inactive)
- EC50 [4]: > 54.7 µM (inactive)
- EC50 [17]: > 79.4 µM (not active)
- IC50 [5]: 22.3 µM (inactive)
- EC50 [18]: > 79.4 µM (not active)
- EC50 [19]: > 79.4 µM (not active)

SMILES: COc1cc2c(cc1NC(=O)c1cccnc1)CCCC2
- IC50 [16]: > 100 µM (inactive)
- AC50 [14]: 9.76 µM (active)

SMILES: Cc1ccc(-c2cc(C(=O)N(C)Cc3cnn(C)c3C)c3cc(Br)ccc3n2)cc1
- AC50 [20]: 29.1 µM (active)
- AC50 [21]: 43.1 µM (active)
- AC50 [22]: 26.6 µM (active)
- IC50 [23]: > 79 µM (inactive)
- IC50 [24]: 1.11 µM (active)

SMILES: C=CCc1cccc2cc(C(=O)NCc3cccnc3)c(=O)oc12
- IC50 [25]: 21.2 µM (inactive)
